Test results: patent US12371428B2 (Exelixis, Inc., priority 2019, dated 2025)

Assays:
[1] = target: Human Mer (residues R557-E882 with H628Q and R794A) (Homo sapiens, UniProt Q12866); experiment: Human Mer kinase assay, 33P-phosphoryl transfer radiometric (Example C-1, KinaseProfiler); format: biochemical; conditions: protocol of Example C-1 (compounds 21-27, 41-47, 99, 104)
Experimental: Kinase activity and compound inhibition were investigated using the ^33P-Phosphoryl transfer radiometric kinase assay, performed using the KinaseProfiler™ service of Eurofins Pharma Discovery Services UK Limited. Dose-response experiments were performed using nine compound concentrations in a 96-well microtiter plate. For each assay, all compounds were prepared to a 50× final assay concentration (50 μM) in 100% DMSO, then diluted in a half-log series, with the final top concentration at 1 μM. This working stock of the compound was added to the assay well as the first component in the reaction, followed by the remaining components as detailed in the following assay protocols below. The positive control wells (100% kinase activity) contain all components of the reaction including 2% DMSO (control for solvent effects), except the compound of interest. Blank wells contain all components of the reaction, with the reference inhibitor, staurosporine. This reference compound was used to abolish kinase activity and generated the 0% kinase activity base-line. IC50 values were calculated by nonlinear regression analysis using the sigmoidal dose-response (variable slope) curve fit on XLFit version 5.3 (ID Business Solutions).
Example C-1: Human Mer (residues R557-E882 with H628Q and R794A, 0.7 nM) was incubated with 8 mM MOPS pH 7.0, 0.2 mM EDTA, 30 mM NaCl, 250 μM […] (SEQ ID NO:2), 10 mM magnesium acetate, and 10 μM [γ-^33P-ATP]. The reaction was initiated by the addition of the Mg/ATP mix. After incubation for 40 minutes at room temperature, the reaction was stopped by the addition of phosphoric acid to a concentration of 0.5%. A reaction aliquot of 10 μL was then spotted onto a P30 filtermat and washed four times for 4 minutes in 0.425% phosphoric acid and once in methanol prior to drying and scintillation counting. Incorporated ^33P was measured using the Wallac Microbeta scintillation counter (Perkin Elmer).

[2] = target: Human Axl (residues H473-A894 with Q764R) (Homo sapiens (Human), UniProt P30530, Q764R); experiment: Human AXL kinase assay, 33P-phosphoryl transfer radiometric (Example A-1, KinaseProfiler); format: biochemical
Experimental: The reaction was initiated by the addition of the Mg/ATP mix. […] Incorporated ^33P was measured using the Wallac Microbeta scintillation counter (Perkin Elmer).

[3] = target: AXL (phospho-AXL, Gas6-stimulated A-172 glioblastoma cells) (Homo sapiens (Human), UniProt P30530); experiment: AXL autophosphorylation ELISA in A-172 cells (Example E); format: cell-based; conditions: cellular activity; AXL autophosphorylation ELISA in A-172 cells; read-out: Axl IC50
Outline: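 Phospho-AXL was measured by ELISA in lysates of Gas6-stimulated A-172 cells, starved 24 h in serum-free medium and exposed 1 h to an 8-point compound dilution at 0.3% DMSO.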

[4] = target: Human AXL (residues 464-885) (Homo sapiens (Human), UniProt P30530); experiment: Human AXL kinase assay, HTRF KinEase (Example A-2); format: biochemical
Experimental: Kinase activity and compound inhibition were also investigated using the HTRF® KinEase assay (Cisbio Cat #62TKOPEB) per manufacturer's instructions. In short, compounds were delivered in 300 nL volumes at 10 different concentrations in DMSO (3% final) to empty 384-well assay plates (Corning cat #3824). A mixture of enzyme, […] biotynlated peptide substrate, and buffer in 10 μL volume was added. The assay was started upon the addition of ATP (at Km). The 10 μL reaction was incubated at room temperature. The reaction was stopped upon the addition of detection buffer containing streptavidin-XL665 ([…]) and TK antibody-Eu3+(5 L).
Kinase activity normalized to DMSO (100% activity) and reference compound at […] and (0% activity) was calculated using the fluorescence ratio […]. IC50 values were calculated by nonlinear regression analysis using a 4-parameter logistic curve fit in ActivityBase XE (IDBS).
The mixture was added to the pre-plated compounds. […] The reaction was incubated at room temperature for 50 min and stopped upon the addition of SA-XL665 and TK-antibody both diluted in EDTA-containing kinase detection buffer (Cisbio). The kinase activity was calculated as stated above and the IC50 values were reported.

[5] = protocol of Example A-2 (other compounds)

Chain of Human AXL (residues 464-885) (P30530 473-894): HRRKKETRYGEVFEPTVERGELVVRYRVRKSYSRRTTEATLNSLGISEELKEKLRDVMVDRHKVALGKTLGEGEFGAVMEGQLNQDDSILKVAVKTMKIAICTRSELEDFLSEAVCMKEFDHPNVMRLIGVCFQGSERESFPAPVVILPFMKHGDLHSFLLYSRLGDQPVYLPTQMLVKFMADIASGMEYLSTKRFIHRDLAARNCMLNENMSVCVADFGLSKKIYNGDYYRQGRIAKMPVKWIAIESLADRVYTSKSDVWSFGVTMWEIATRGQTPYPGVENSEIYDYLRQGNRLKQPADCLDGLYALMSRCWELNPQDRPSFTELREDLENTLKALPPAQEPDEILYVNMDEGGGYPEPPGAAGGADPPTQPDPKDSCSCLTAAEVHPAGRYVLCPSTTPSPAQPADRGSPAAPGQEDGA
Chain of AXL (phospho-AXL, Gas6-stimulated A-172 glioblastoma cells) (P30530 26-894): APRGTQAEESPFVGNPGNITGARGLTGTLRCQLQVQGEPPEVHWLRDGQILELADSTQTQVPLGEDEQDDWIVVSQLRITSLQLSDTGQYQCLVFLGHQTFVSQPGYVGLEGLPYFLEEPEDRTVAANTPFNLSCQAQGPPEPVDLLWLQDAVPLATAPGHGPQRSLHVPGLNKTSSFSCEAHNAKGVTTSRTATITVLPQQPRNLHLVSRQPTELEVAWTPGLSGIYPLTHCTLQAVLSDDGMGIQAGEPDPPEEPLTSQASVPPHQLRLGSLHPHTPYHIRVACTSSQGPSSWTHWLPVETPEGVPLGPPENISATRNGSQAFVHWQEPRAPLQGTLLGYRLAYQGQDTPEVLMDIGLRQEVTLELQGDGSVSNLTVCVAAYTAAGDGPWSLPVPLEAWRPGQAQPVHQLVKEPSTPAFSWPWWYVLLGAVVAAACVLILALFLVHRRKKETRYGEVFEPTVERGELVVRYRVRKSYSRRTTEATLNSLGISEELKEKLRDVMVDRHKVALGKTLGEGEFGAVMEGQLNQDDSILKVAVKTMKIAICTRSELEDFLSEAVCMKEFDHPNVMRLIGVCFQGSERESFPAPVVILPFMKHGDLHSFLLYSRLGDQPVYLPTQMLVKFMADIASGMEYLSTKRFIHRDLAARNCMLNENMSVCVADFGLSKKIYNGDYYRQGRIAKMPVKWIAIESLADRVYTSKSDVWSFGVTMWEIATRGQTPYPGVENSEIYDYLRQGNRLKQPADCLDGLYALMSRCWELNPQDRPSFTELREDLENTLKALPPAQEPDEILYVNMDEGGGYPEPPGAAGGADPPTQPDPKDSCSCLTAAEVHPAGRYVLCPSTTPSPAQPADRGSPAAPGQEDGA
Chain of Human Mer (residues R557-E882 with H628Q and R794A) (Q12866 21-999 limits assumed, stated change not applied): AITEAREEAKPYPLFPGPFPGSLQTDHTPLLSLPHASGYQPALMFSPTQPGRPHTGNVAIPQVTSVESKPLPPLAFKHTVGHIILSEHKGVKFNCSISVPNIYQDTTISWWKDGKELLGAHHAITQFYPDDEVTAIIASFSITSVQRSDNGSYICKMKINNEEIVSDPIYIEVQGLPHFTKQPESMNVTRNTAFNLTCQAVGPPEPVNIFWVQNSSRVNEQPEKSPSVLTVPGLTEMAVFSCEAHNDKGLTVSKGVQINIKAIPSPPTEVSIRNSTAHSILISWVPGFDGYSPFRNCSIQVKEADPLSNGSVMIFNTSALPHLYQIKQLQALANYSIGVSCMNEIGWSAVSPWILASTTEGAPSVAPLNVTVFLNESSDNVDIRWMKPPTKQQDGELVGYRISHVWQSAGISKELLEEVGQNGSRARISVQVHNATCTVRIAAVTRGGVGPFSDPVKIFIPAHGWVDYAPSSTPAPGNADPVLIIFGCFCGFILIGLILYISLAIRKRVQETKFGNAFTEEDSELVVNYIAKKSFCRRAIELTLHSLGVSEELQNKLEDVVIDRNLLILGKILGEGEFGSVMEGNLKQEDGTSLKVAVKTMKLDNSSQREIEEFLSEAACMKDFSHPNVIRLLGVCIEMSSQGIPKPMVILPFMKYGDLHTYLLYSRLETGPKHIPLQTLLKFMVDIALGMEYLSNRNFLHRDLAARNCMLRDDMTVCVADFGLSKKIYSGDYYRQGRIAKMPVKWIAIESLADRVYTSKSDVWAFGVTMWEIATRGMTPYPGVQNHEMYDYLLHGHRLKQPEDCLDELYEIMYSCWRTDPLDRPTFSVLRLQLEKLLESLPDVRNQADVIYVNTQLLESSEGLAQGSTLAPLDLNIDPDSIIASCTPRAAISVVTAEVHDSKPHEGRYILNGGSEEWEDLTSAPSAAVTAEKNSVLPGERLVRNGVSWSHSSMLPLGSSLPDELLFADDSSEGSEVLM
Chain of Human Axl (residues H473-A894 with Q764R) (P30530 473-894 Q764R): as the sequence (P30530 473-894) above, with Q292R counted along it

| SMILES | IC50 [1] [nM] | IC50 [2] [nM] | IC50 [3] [nM] | IC50 [4, 5] [nM] | IC50 ([4]; protocol of Example A-2) [nM] |
| --- | --- | --- | --- | --- | --- |
| COc1cc2nccc(Oc3ccc(NC(=O)c4c[nH]c(=S)n(-c5ccc(F)cc5)c4=O)cc3F)c2nc1OC [Compound 104, N-[4-[(6,7-Dimethoxy-1,5-naphthyridin-4-yl)oxy]-3-fluorophenyl]-3-(4-fluorophenyl)-4-oxo-2-sulfanylidene-1H-pyrimidine-5-carboxamide] | > 300 | > 300 | < 100 |  |  |
| COc1cc2nccc(Oc3ccc(NC(=O)c4ccc(C)n(-c5ccc(F)cc5)c4=O)cc3F)c2nc1OC [Compound 254, N-[4-[(6,7-Dimethoxy-1,5-naphthyridin-4-yl)oxy]-3-fluorophenyl]-1-(4-fluorophenyl)-6-methyl-2-oxopyridine-3-carboxamide] |  |  | < 100 | < 100 |  |
| CNc1nccc2c(Oc3ccc(NC(=O)c4cnc(C)n(-c5ccc(F)cc5)c4=O)cc3)ccnc12 [Compound 543, 1-(4-fluorophenyl)-2-methyl-N-[4-[[8-(methylamino)-1,7-naphthyridin-4-yl)oxy]phenyl]-6-oxopyrimidine-5-carboxamide] |  |  | < 100 |  | < 100 |
| COc1cc2ncnc(Oc3ccc(NC(=O)c4c5n(cc(-c6ccc(F)cc6)c4=O)CCC5)cc3F)c2cc1OC [Compound 406, N-[4-(6,7-dimethoxyquinazolin-4-yl)oxy-3-fluorophenyl]-6-(4-fluorophenyl)-7-oxo-2,3-dihydro-1H-indolizine-8-carboxamide] |  |  | < 100 | < 100 |  |
